Read-outs that look alike come from different tables or passages of the source.
Key:
HeLa cell line = experiment: HeLa MTS cellular reduction toxicity assay; format: cell-based; details: for TX50: 24 h, MTS
Description: The RBC protocol was from Blondelle (2000) and is described generally as follows: The toxicity toward the HeLa cell line was determined using a MTS (3-(4-5-dimethylthiazol-2-yl)-5-(3carboxymethoxyphenyl)-2-(4-sulfophenyl)-2H-tetrazolium, sodium salt) cellular reduction assay. MTS (2 mg/mL) was prepared in Dulbecco PBS (pH 7.35), filtered, aliquoted and stored at minus 20° C. In 96 well flat bottomed plates, cell suspensions (250 μL of 6×10^4 cell/mL in each well) were incubated for 48 h at 37° C. (5% CO2 incubator). The peptides (50 μL) were then added to the cell monolayer (following aspiration of the media from each well and addition of 50 μL of Dulbecco's Modified Eagles Medium) at varying concentrations derived from serial 2-fold dilutions, and the plates incubated for 24 h at 37° C. (5% CO2 incubator). Proliferation was then determined by adding a solution of phenazine methosulfate (PMS: 0.92 mg/mL in DPBS) to MTS at a 1:20 ration just prior to the assay. Twenty microliters MTS-PMS solution were added to each well and the plates incubated for 1 h at 37° C. (5% CO2 incubator). The relative percent toxicity was determined by comparing the absorbance at 490 nm of each peptide to the absorbance of cells without peptide. The TX50 (concentration required for 50% toxicity) was calculated using a sigmoidal curve fitting software (Graphpad Prism).

Cr. Neoformans 32045 = format: cell-based
Description: (§1) The MIC and IC50 values were determined by a broth microdilution method according to guidelines of the National Committee for Clinical Laboratory Standard as follows: In 96-well tissue culture plates, a fixed volume of bacterial suspension in 2× broth (as defined below) was added to the mixtures or individual compounds dispensed at concentrations varying from 1,000 to 1 μg/ml derived from serial two-fold dilutions in sterile water. The bacteria tested were P. aeruginosa American Type Culture Collection Number (ATCC) 10145, E. coli ATCC 2592, and S. aureus (methicillin reseistant) ATTC 33591.
(§2) The plates were incubated overnight, and the relative percent growth determined by optical density at 620 nm (OD620) using a TITERTEK MULTISKAN PLUS™. […] IC50 values were calculated using a sigmoidal curve fitting software program (GRAPHPAD,™ ISI Software,™ San Diego, Calif.). All samples were tested in duplicate and each assay was repeated at least twice. In the following table, KFAK is the repeat unit and multimers of KFAK were tested. IC50 and MIC are reported in μg/ml.
(§3) Because the antibacterial activity of the periodic peptides was so promising, further experiments were performed to determine if the periodic peptides also had antifungal activity. The experimental design was similar to that above, with accommodation made for fungal growth requirements, including the use of Sabouraud Dextrose Broth (SDB) and Sabouraud Dextrose Agar (SDA) slants.

C. albicans 10231 = format: cell-based; details: 10231
Description: as §1, §2, §3

E. coli ATCC 2592 = details: ATCC 2592
Description: (§4) The bacteria tested were P. aeruginosa American Type Culture Collection Number (ATCC) 10145, E. coli ATCC 2592, and S. aureus (methicillin reseistant) ATTC 33591.
(§5) All experiments were compared to bacterial growth under optimal growth conditions (37° C., pH 7.0, absence of additional salt, growth media—referred to as standard growth conditions). In each plate, no growth control (media alone), positive growth control (bacteria with no test sample), positive antimicrobial controls (agents with known antimicrobial activity) and test compounds were tested.
(§6) The plates were incubated overnight, and the relative percent growth determined by optical density at 620 nm (OD620) using a […] […] PLUS™. […] All samples were tested in duplicate and each assay was repeated at least twice. […] IC50 and MIC are reported in μg/ml.

[1] = tested on: S. aureus (methicillin resistant) ATCC 33591; details: ATCC 33591
Description: as §4, §5, §6

P. aeruginosa ATCC 10145 = details: ATCC 10145
Description: as §4, §5, §6

Red blood cell toxicity = format: cell-based; details: red blood cells (RBC)
Red blood cells (RBC) = experiment: Red blood cell toxicity; format: cell-based
Staph. aureus ATCC 6538 = experiment: HMARQ biocidal kill activity; format: cell-based; details: Staph. aureus ATCC 6538 (gram+)
Description: (§7) Biocide efficacy protocols were improved by reducing sample size, organizing the test material into an array format, implementing most probable number (MPN) quantitation and using multi-channel liquid handling equipment. We call the new method “high-throughput microanalysis and rapid quantitation” or “HMARQ.” HMARQ is directly applicable to current industrial efficacy tests such as multi-cycle preservation challenge or time course disinfection tests.
(§8) HMARQ is performed in a high throughput plate, such as 96-well microtiter plates. Typical sample volumes have been reduced down to 200 to 300 μL, but can be reduced further if desired. In these samples, no more than 10% of the total volume will be composed of the biocide and organism solution, and all non-matrix additions are normalized for all samples.
(§9) The sample matrix is first inoculated with the desired concentration of microorganisms. Inoculated sample matrix is then added to the 96-well assay block containing the biocide(s) under study. Each sample block contains biocide treated samples and untreated control samples (lacking biocide). Once the samples are prepared, the entire block of samples is mixed by vortexing until each sample is homogenous. In general, the study starts once mixing is complete, and samples are removed as required for the analysis. When Kill Time testing (rate of biocide activity) is performed, the microorganisms are added after biocide addition to the samples, allowing for rapid mixing and analysis.
(§10) Bacterial concentration (CFU/mL) is determined using the most probable number method (MPN). The contaminated solution is serially diluted until the “no growth” endpoint is reached. The endpoint represents the MPN and is expressed in units of the bacterial concentration. A serial 1:10 dilution will yield a bacterial concentration resolution of 1 log and the log reduction is determined by comparing the concentration of organisms in a treated sample to the concentration of organisms in untreated samples. For example, if a sample requires four 1:10 dilutions before bacterial growth is lost then the MPN for bacterial concentration in the sample is less than or equal to 1×10^4 CFU/mL (1E4). […] This method of enumeration is generally applicable to all non-filamentous microorganisms.
(§11) Media included Tryptic Soy Broth (TSB) for bacteria and Sabouraud Dextrose Broth (SDB) for fungi. These are available commercially and prepared according to the manufacturers instructions. Indicator medium was TSB/R for bacteria and SDB/R for fungi. These were made by addition of 50 μM filter sterilized Resazurin to the sterilized and cooled medium. Tryptic Soy agar plates (TSA) and SDA slants were used to provide inoculant for bacterial and fungal cultures. The indicator dye appeared pink or white when bacterial growth was present.
(§12) Using the HMARQ test described above, periodic peptides were generated and tested for Kill Activity. In this experiment, a broader range of peptidezs were tested for activity. Units are expressed as ppm (μg/mL) needed for 3.5 log kill at 15 min or 24 hour and the results are shown below.

P. aeruginosa ATCC 15442 = experiment: HMARQ biocidal kill activity; format: cell-based; details: P. aeruginosa ATCC 15442 (gram−)
Description: as §7, §8, §9, §10, §11, §12

[2] = RBCs, concentration required for 50% toxicity, read-out: TX50

Substance | % kill at 500 μg/ml (HeLa cell line) [%] | TX50 (HeLa cell line) [µg/mL] | IC50 (Cr. Neoformans 32045) [µg/mL] | MIC (Cr. Neoformans 32045) [µg/mL] | IC50 (C. albicans 10231) [µg/mL] | MIC (C. albicans 10231) [µg/mL] | IC50 (E. coli ATCC 2592) [µg/mL] | MIC (E. coli ATCC 2592) [µg/mL] | IC50 [1] [µg/mL] | MIC [1] [µg/mL] | IC50 (P. aeruginosa ATCC 10145) [µg/mL] | MIC (P. aeruginosa ATCC 10145) [µg/mL] | HC50 at 24 h (Red blood cell toxicity; [2]) [µg/mL] | % kill at 250 μg/ml (Red blood cells (RBC)) [%] | ppm needed for 3.5 log kill at 15 min (Staph. aureus ATCC 6538) [ppm] | ppm needed for 3.5 log kill at 24 hr (Staph. aureus ATCC 6538) [ppm] | ppm needed for 3.5 log kill at 15 min (P. aeruginosa ATCC 15442) [ppm] | ppm needed for 3.5 log kill at 24 hr (P. aeruginosa ATCC 15442) [ppm] | HC50 at 24 h (Red blood cell toxicity) [µg/mL]
H-FKAFKAFKAFKAFKAFKAFKAFKA-OH [FKA (8), FKA FKA FKA FKA FKA FKA FKA FKA] | 60.4 | >500 | 3.9 | 16 to 32 | 199 | 250 to 500 | 7 | 16 to 32 | 74 | >500 | 19 | 25 | > 500 | 10 | 8 | 125 | 125 | 16 | –
H-FKAFKAFKAFKAFKAFKAFKAFKAFKA-OH [FKA (9), FKA FKA FKA FKA FKA FKA FKA FKA FKA] | 20.9 | 389 | 16 | 62 to 125 | 195 | 250 to 500 | 4 | 31 to 62 | 17 | 31 to 62 | 16 | 20 | > 500 | 24 | 8 | 125 | 4 | 4 | –
H-FKAFKAFKAFKAFKAFKAFKAFKAFKAFKA-OH [FKA (10), FKA FKA FKA FKA FKA FKA FKA FKA FKA FKA] | 15.0 | 234 | 20 | 32 to 62 | 182 | 250 to 500 | 9 | 31 to 62 | 12 | 31 to 62 | 27 | 32 | > 500 | 51 | 8 | 8 | 8 | 16 | –
H-KFAKKFAKKFAKKFAKKFAKKFAKKFAKKFAK-OH [KFAK (8), KFAK KFAK KFAK KFAK KFAK KFAK KFAK KFAK] | 18.2 | 249 | 4.1 | 8 to 16 | 105 | 125 to 250 | 12 | 16 to 32 | 40 | 125 to 250 | 19 | 20 | – | 48 | >500 | 8 | 31 | 31 | > 500
H-KFKKFKKFKKFKKFKKFKKFKKFK-OH [KFK (8), KEK KFK KFK KFK KFK KFK KFK KFK] | 84.2 | >500 | 25 | 40 to 62 | 113 | 125 to 250 | 20 | 32 to 62 | 72 | >250 | 145 | 250 | > 500 | −6 | >500 | 500 | >500 | >125 | –
H-KFKKFKKFKKFKKFKKFKKFKKFKKFKKFK-OH [KFK (10), KFK KFK KFK KFK KFK KFK KEK KFK KFK KFK] | 56.8 | >500 | 30 | 40 to 62 | 104 | 125 to 250 | 10 | 12 to 16 | 59 | >250 | 31 | 62 | > 500 | 3 | 4 | 500 | 8 | 8 | –
H-KKAKKKAKKKAKKKAKKKAKKKAKKKAK-OH [KKAK (7), KKAK KKAK KKAK KKAK KKAK KKAK KKAK] | >87.9 | >500 | 28 | >63 | >500 | >500 | 26 | 31 to 62 | 60 | – | 99 | 125 | > 500 | −6 | >500 | 125 | 16 | 16 | –
